# What was measured:
# Assay type in all cases: functional
# SK-MEL-2 [1] = test: Growth inhibition of human SK-MEL-2 cells assessed as cell growth at 3X10'-6 M after 48 hrs by sulforhodamine B assay; details: SK-MEL-2, 48 h, read-out: Activity
# DU-145 [2] = test: Growth inhibition of human DU145 cells assessed as cell growth at 3X10'-9 M after 48 hrs by sulforhodamine B assay; details: DU-145, 48 h, read-out: Activity
# OVCAR-3 = test: Growth inhibition of human OVCAR3 cells assessed as cell growth at 3X10'-6 M after 48 hrs by sulforhodamine B assay; details: OVCAR-3, 48 h, read-out: Activity
# NCI-H23 = test: Growth inhibition of human NCI-H23 cells assessed as cell growth at 3X10'-9 M after 48 hrs by sulforhodamine B assay; details: NCI-H23, 48 h, read-out: Activity
# ACHN = test: Growth inhibition of human ACHN cells assessed as cell growth at 3X10'-6 M after 48 hrs by sulforhodamine B assay; details: read-out: Activity
# CCRF-CEM [3] = test: Growth inhibition of human CCRF-CEM cells assessed as cell growth at 3X10'-9 M after 48 hrs by sulforhodamine B assay; details: read-out: Activity
# DU-145 [4] = test: Growth inhibition of human DU145 cells assessed as cell growth at 3X10'-6 M after 48 hrs by sulforhodamine B assay; details: DU-145, 48 h, read-out: Activity
# MOLT-4 = test: Growth inhibition of human MOLT4 cells assessed as cell growth at 3X10'-6 M after 48 hrs by sulforhodamine B assay; details: MOLT-4, 48 h, read-out: Activity
# SW-620 = test: Growth inhibition of human SW620 cells assessed as cell growth at 3X10'-8 M after 48 hrs by sulforhodamine B assay; details: SW-620, 48 h, read-out: Activity
# SK-MEL-2 [5] = test: Growth inhibition of human SK-MEL-2 cells assessed as cell growth at 3X10'-9 M after 48 hrs by sulforhodamine B assay; details: SK-MEL-2, 48 h, read-out: Activity
# HOP-92 [6] = test: Growth inhibition of human HOP92 cells assessed as cell growth at 3X10'-5 M after 48 hrs by sulforhodamine B assay; details: HOP-92, 48 h, read-out: Activity
# SR [7] = test: Growth inhibition of human SR cells assessed as cell growth at 3X10'-8 M after 48 hrs by sulforhodamine B assay; details: read-out: Activity
# CCRF-CEM [8] = test: Growth inhibition of human CCRF-CEM cells assessed as cell growth at 3X10'-7 M after 48 hrs by sulforhodamine B assay; details: read-out: Activity
# MDA-MB-231 = test: Growth inhibition of human MDA-MB-231 cells assessed as cell growth at 3X10'-8 M after 48 hrs by sulforhodamine B assay; details: MDA-MB-231, 48 h, read-out: Activity
# NCI-H226 = test: Growth inhibition of human NCI-H226 cells assessed as cell growth at 3X10'-6 M after 48 hrs by sulforhodamine B assay; details: NCI-H226, 48 h, read-out: Activity
# HCT-15 = test: Growth inhibition of human HCT15 cells assessed as cell growth at 3X10'-9 M after 48 hrs by sulforhodamine B assay; details: HCT-15, 48 h, read-out: Activity
# SR [9] = test: Growth inhibition of human SR cells assessed as cell growth at 3X10'-9 M after 48 hrs by sulforhodamine B assay; details: read-out: Activity
# RXF 393 = test: Growth inhibition of human RXF393 cells assessed as cell growth at 3X10'-6 M after 48 hrs by sulforhodamine B assay; details: RXF 393, 48 h, read-out: Activity
# SK-MEL-5 = test: Growth inhibition of human SK-MEL-5 cells assessed as cell growth at 3X10'-5 M after 48 hrs by sulforhodamine B assay; details: SK-MEL-5, 48 h, read-out: Activity
# CCRF-CEM [10] = test: Growth inhibition of human CCRF-CEM cells assessed as cell growth at 3X10'-5 M after 48 hrs by sulforhodamine B assay; details: read-out: Activity
# HCT-116 = test: Growth inhibition of human HCT116 cells assessed as cell growth at 3X10'-5 M after 48 hrs by sulforhodamine B assay; details: HCT-116, 48 h, read-out: Activity
# BT-549 = test: Growth inhibition of human BT549 cells assessed as cell growth at 3X10'-7 M after 48 hrs by sulforhodamine B assay; details: BT-549, 48 h, read-out: Activity
# SNB-75 [11] = test: Growth inhibition of human SNB75 cells assessed as cell growth at 3X10'-5 M after 48 hrs by sulforhodamine B assay; details: SNB-75, 48 h, read-out: Activity
# [12] = Growth inhibition of human HCC2998 cells assessed as cell growth at 3X10'-6 M after 48 hrs by sulforhodamine B assay; details: HCC 2998, 48 h, read-out: Activity
# SF-268 = test: Growth inhibition of human SF268 cells assessed as cell growth at 3X10'-8 M after 48 hrs by sulforhodamine B assay; details: SF-268, 48 h, read-out: Activity
# OVCAR-5 = test: Growth inhibition of human OVCAR5 cells assessed as cell growth at 3X10'-6 M after 48 hrs by sulforhodamine B assay; details: OVCAR-5, 48 h, read-out: Activity
# SNB-75 [13] = test: Growth inhibition of human SNB75 cells assessed as cell growth at 3X10'-8 M after 48 hrs by sulforhodamine B assay; details: SNB-75, 48 h, read-out: Activity
# KM12 [14] = test: Growth inhibition of human KM12 cells assessed as cell growth at 3X10'-9 M after 48 hrs by sulforhodamine B assay; details: KM12, 48 h, read-out: Activity
# KM12 [15] = test: Growth inhibition of human KM12 cells assessed as cell growth at 3X10'-6 M after 48 hrs by sulforhodamine B assay; details: KM12, 48 h, read-out: Activity
# HOP-92 [16] = test: Growth inhibition of human HOP92 cells assessed as cell growth at 3X10'-9 M after 48 hrs by sulforhodamine B assay; details: HOP-92, 48 h, read-out: Activity
# T47D = test: Growth inhibition of human T47D cells assessed as cell growth at 3X10'-6 M after 48 hrs by sulforhodamine B assay; details: read-out: Activity
# HOP-92 [17] = test: Growth inhibition of human HOP92 cells assessed as cell growth at 3X10'-6 M after 48 hrs by sulforhodamine B assay; details: HOP-92, 48 h, read-out: Activity
# K562 = test: Growth inhibition of human K562 cells assessed as cell growth at 3X10'-8 M after 48 hrs by sulforhodamine B assay; details: K562, 48 h, read-out: Activity
# MDA-MB-435 = test: Growth inhibition of human MDA-MB-435 cells assessed as cell growth at 3X10'-9 M after 48 hrs by sulforhodamine B assay; details: MDA-MB-435, 48 h, read-out: Activity
# OVCAR-8 = test: Growth inhibition of human OVCAR8 cells assessed as cell growth at 3X10'-5 M after 48 hrs by sulforhodamine B assay; details: OVCAR-8, 48 h, read-out: Activity
# DU-145 [18] = test: Growth inhibition of human DU145 cells assessed as cell growth at 5X10'-6 M after 48 hrs by sulforhodamine B assay; details: DU-145, 48 h, read-out: Activity
# RPMI-8226 = test: Growth inhibition of human RPMI8226 cells assessed as cell growth at 3X10'-6 M after 48 hrs by sulforhodamine B assay; details: RPMI-8226, 48 h, read-out: Activity
SMILES,growth at 3 µM (SK-MEL-2 [1]) [%],growth at 0.003 µM (DU-145 [2]) [%],growth at 3 µM (OVCAR-3) [%],growth at 0.003 µM (NCI-H23) [%],growth at 3 µM (ACHN) [%],growth at 0.003 µM (CCRF-CEM [3]) [%],growth at 3 µM (DU-145 [4]) [%],growth at 3 µM (MOLT-4) [%],growth at 0.03 µM (SW-620) [%],growth at 0.003 µM (SK-MEL-2 [5]) [%],growth at 30 µM (HOP-92 [6]) [%],growth at 0.03 µM (SR [7]) [%],growth at 0.3 µM (CCRF-CEM [8]) [%],growth at 0.03 µM (MDA-MB-231) [%],growth at 3 µM (NCI-H226) [%],growth at 0.003 µM (HCT-15) [%],growth at 0.003 µM (SR [9]) [%],growth at 3 µM (RXF 393) [%],growth at 30 µM (SK-MEL-5) [%],growth at 5 µM (DU-145 [18]) [%],other results
COc1cc(-c2nn(-c3cccc(NC(=O)Nc4ccc(Cl)c(C(F)(F)F)c4)c3)cc2-c2ccncc2)ccc1Cl,-12,102,-14,100,8,98,23,9,100,111,-46,107,93,92,38,94,105,20,-94,–,growth at 30 µM (CCRF-CEM [10]): 2%; growth at 30 µM (HCT-116): -63%; growth at 0.3 µM (BT-549): 109%; growth at 30 µM (SNB-75 [11]): -24%; growth at 3 µM [12]: 26%; growth at 0.03 µM (SF-268): 103%; growth at 3 µM (OVCAR-5): 49%; growth at 0.03 µM (SNB-75 [13]): 93%; growth at 0.003 µM (KM12 [14]): 103%; growth at 3 µM (KM12 [15]): 7%; growth at 0.003 µM (HOP-92 [16]): 68%; growth at 3 µM (T47D): 18%; growth at 3 µM (HOP-92 [17]): -36%; growth at 0.03 µM (K562): 105%; growth at 0.003 µM (MDA-MB-435): 98%; growth at 30 µM (OVCAR-8): -13%
O=C(Nc1cccc(-n2cc(-c3ccncc3)c(-c3ccc(Cl)c(O)c3)n2)c1)Nc1cc(C(F)(F)F)cc(C(F)(F)F)c1,–,–,–,–,–,–,–,–,–,–,–,–,–,–,–,–,–,–,–,5,–
O=C(Nc1cccc(-n2cc(-c3ccncc3)c(-c3ccc(Cl)c(O)c3)n2)c1)Nc1ccc(Cl)c(Cl)c1,-11,104,-1,90,5,91,22,19,98,98,-31,98,90,100,28,102,91,16,-95,–,growth at 3 µM (RPMI-8226): 10%; growth at 30 µM (CCRF-CEM [10]): 5%; growth at 30 µM (HCT-116): -39%; growth at 0.3 µM (BT-549): 106%; growth at 30 µM (SNB-75 [11]): -15%; growth at 3 µM [12]: 47%; growth at 0.03 µM (SF-268): 92%; growth at 3 µM (OVCAR-5): 42%; growth at 0.03 µM (SNB-75 [13]): 92%; growth at 0.003 µM (KM12 [14]): 97%; growth at 3 µM (KM12 [15]): 9%; growth at 0.003 µM (HOP-92 [16]): 98%; growth at 3 µM (T47D): 26%; growth at 3 µM (HOP-92 [17]): -26%; growth at 0.03 µM (K562): 102%; growth at 0.003 µM (MDA-MB-435): 95%; growth at 30 µM (OVCAR-8): 7%
COc1cc(-c2nn(-c3cccc(NC(=O)Nc4ccc(Cl)c(Cl)c4)c3)cc2-c2ccncc2)ccc1Cl,–,–,–,–,–,–,–,–,–,–,–,–,–,–,–,–,–,–,–,7,–
COc1cc(-c2nn(-c3cccc(NC(=O)c4ccc(Cl)c(C(F)(F)F)c4)c3)cc2-c2ccncc2)ccc1Cl,36,100,43,93,47,96,67,57,97,92,-8,98,101,97,59,99,99,36,-51,–,growth at 3 µM (RPMI-8226): 31%; growth at 30 µM (CCRF-CEM [10]): 4%; growth at 30 µM (HCT-116): 18%; growth at 0.3 µM (BT-549): 95%; growth at 30 µM (SNB-75 [11]): -2%; growth at 3 µM [12]: 63%; growth at 0.03 µM (SF-268): 94%; growth at 3 µM (OVCAR-5): 88%; growth at 0.03 µM (SNB-75 [13]): 89%; growth at 0.003 µM (KM12 [14]): 98%; growth at 3 µM (KM12 [15]): 39%; growth at 0.003 µM (HOP-92 [16]): 94%; growth at 3 µM (T47D): 40%; growth at 0.03 µM (K562): 100%; growth at 0.003 µM (MDA-MB-435): 95%; growth at 30 µM (OVCAR-8): 15%
COc1cc(-c2nn(-c3cccc(NC(=O)c4cccc(C(F)(F)F)c4)c3)cc2-c2ccncc2)ccc1Cl,–,–,–,–,–,–,–,–,–,–,–,–,–,–,–,–,–,–,–,15,–
COc1cc(-c2nn(-c3cccc(NC(=O)Nc4cccc(C(F)(F)F)c4)c3)cc2-c2ccncc2)ccc1Cl,–,–,–,–,–,–,–,–,–,–,–,–,–,–,–,–,–,–,–,14,–
O=C(Nc1cccc(-n2cc(-c3ccncc3)c(-c3ccc(Cl)c(O)c3)n2)c1)c1ccc(N2CCOCC2)c(C(F)(F)F)c1,–,–,–,–,–,–,–,–,–,–,–,–,–,–,–,–,–,–,–,46,–
